Source: PMC9260180, “Blocking the Farnesyl Pocket of PDEδ Reduces Rheb-Dependent mTORC1 Activation and Survival of Tsc2-Null Cells” (Frontiers in Pharmacology, 2022)
Values joined by “and” are separate entries in the source; they are usually repeats but may differ in a detail not shown here. Equal entries are not always repeated.

What was measured:
Tsc2-wt MEFs = assay: XTT viability assay in Tsc2-wt MEFs; assay type: cell-based, mouse
Procedure: (§1) We used XTT based-Cell Proliferation Kit (Biological Industries, USA) according to the manufacturer’s instructions to assess cell viability and proliferation. Briefly, Tsc2-null or Tsc2-wt MEF cells were seeded in 96-well plates and grown in DMEM without phenol red (Biological Industries, Cromwell, USA) at 37°C in 5% CO2. […] After 4 h of incubation, viable cells were detected by measuring the absorbance at 450nm/630 nm using TECAN Infinite® 200 PRO microplate reader (Tecan Group Ltd. Männedorf, Switzerland). The results were expressed as a percentage of absorbance relative to the control group.

[1] = test system: mTORC1 signaling in Tsc2-wt MEFs; assay: mTORC1 signaling by immunoblotting in Tsc2-wt MEFs; assay type: cell-based, mouse; conditions: 4 h and 24 h, Deltasonamide 1 6 µM, rapamycin 20 nM
Procedure: (§2) Proteins were extracted in cold lysis buffer (50 mM Tris-HCl pH 7.4; 10% glycerol; 200 mM NaCl2; 2.5 mM MgCl2; 1% Triton X-100; 1/100 protease inhibitors; 1/100 phosphatase inhibitors) and the protein concentration was determined by Bradford assay. Total proteins were denaturized in loading buffer (50 mM Tris-HCl pH 6.8; 2% SDS; 0.1% bromophenol blue; 10% glycerol; 1% β-mercaptoethanol) by boiling for 5 min, separated by SDS-PAGE, and transferred to Polyvinylidene fluoride (PVDF) membrane (MilliporeSigma, Burlington, USA). For immunoblotting, all primary antibodies were diluted 1:1.000, except for anti-β-Actin antibody (1:10000 dilution). Secondary antibodies were diluted 1:10000. Immunolabeled proteins were detected using ECL Western Blotting Detection Reagent (GE Healthcare, Chicago, USA) and visualized in Syngene PXi6 Documentation System (Frederick, MD, USA).
Supplementary Figure 4. […].
and 24 h (right panel). Lysates were characterized by immunoblotting of the indicated proteins. Results
are representative of three independent experiments.
(§3) (1 picture or pasted object on this page, not shown here)

Tsc2-null MEFs [2] = assay: Live/Dead and CytoTox-Glo cell assay in Tsc2-null MEFs; conditions: Deltasonamide 1 6 µM, rapamycin 20 nM; for effect on cell numbers: vs DMSO
[3] = test system: Rheb localization in Tsc2-wt MEF cells; assay: GFP-Rheb cellular localization by confocal microscopy in Tsc2-wt MEFs; assay type: cell-based, mouse; conditions: Tsc2-wt MEF cells with GFP-Rheb, 6 µM, 24 h
Procedure: For GFP proteins, Tsc2-wt MEF cells were electroporated with 3 µg of pEGFP-C1-RhebWT (GFP-Rheb) or pEGFP-C1 (GFP only) using NEON™ Transfection System (Invitrogen). Briefly, 200.000 cells were electroporated with the 10 µl tips at 1100 V for 30 mseg (one pulse). […] Cells were fixed with 4% w/v paraformaldehyde (PFA) for 10 min and permeabilized with 0.1% Triton X-100 in Phosphate-Buffered Saline (PBS) for 30 min. Then, samples were blocked for 1 h with 3% BSA-PBS and incubated overnight with primary antibody (1:200 dilution) in a dark/wet chamber at 4°C. Next, fixed cells were incubated with secondary antibody (1:500 dilution) and Hoechst (1:250 dilution) for 1 h in the dark/wet chamber at room temperature. The coverslips were mounted on a slide with DAKO mounting medium (Agilent, Santa Clara, USA). Images were analyzed by confocal fluorescence microscopy using the LSM780 NLO Confocal Spectral Microscope (Carl Zeiss, Jena, Germany).
Supplementary Figure 5. Deltasonamide 1 affects the cellular localization of Rheb. Tsc2-wt MEF cells were transfected with pEGFP-C1-GFP-RhebWT (GFP -Rheb) or pEGFP-C1 (GFP only) and treated with 6µM Deltas onamide 1 or DMSO for 24 hours. GFP-Rheb and GFP levels were analyzed by immunofluorescence and confocal microscopy. Scale bar = 20 µm.
as §3

[4] = test system: phospho-p70 S6 kinase (Thr389) in Tsc2-null MEFs; assay: S6K phosphorylation (Thr389) by Western blot in Tsc2-null MEFs; conditions: 24 h
Text: Levels of phospho-p70 S6 kinase (Thr389) (pS6K) were detected by Western blot and measured using densitometric analysis.

Tsc2-null MEFs [5] = assay: BrdU assay in Tsc2-null MEFs; assay type: cell-based, mouse; conditions: 24 h, Deltasonamide 1 6 µM, rapamycin 20 nM
Procedure: BrdU (5-Bromo-2-deoxyuridine) labeling, and detection kit II (Roche, Basel, Switzerland) were used for the analysis. Briefly, cells were labeled 45 min with 50 µM BrdU and fixed for 20 min at […] with a fixing solution (15 mM glycine pH 2.0, 70% ethanol). Then, cells were incubated with anti-BrdU antibody (1:20 dilution) and nucleases in incubation buffer (66 mM Tris, 0.66 mM MgCl2, 1 mM β-mercaptoethanol) for 30 min at 37°C in a wet chamber. For secondary antibody, Alexa 555 anti-mouse conjugated (1:500 dilution) was used. The nuclei were labeled with Hoechst 33342 diluted 1:250. Finally, the samples were mounted on a slide with DAKO mounting medium. At least 3 images were captured using Olympus CKX41 fluorescence microscope for each condition. BrdU positive cells were analyzed using ImageJ software.

Caco-2 cells = assay: Caco-2 permeability assay
Procedure: To measure cellular permeability, Caco-2 cells were seeded on a transwell membrane in a 24-well format and grown for 3 weeks to form a monolayer of differentiated cells.

[6] = test system: phospho-4EBP1 (Thr37/46, Thr70) in Tsc2-null MEFs; assay: 4EBP1 phosphorylation by Western blot in Tsc2-null MEFs; assay type: cell-based, mouse; conditions: 24 h; for effect on 4EBP1 phosphorylation (p4EBP1 levels, top band): 6 µM; for change in electrophoretic pattern of total and phosphorylated 4EBP1: Deltasonamide 1 6 µM, rapamycin 20 nM
Procedure: (§4) p53−/− Tsc2+/+ mouse embryonic fibroblast (MEF) and p53−/− Tsc2−/− MEF cells (hereinafter referred to as Tsc2-wt and Tsc2-null MEFs) were kindly provided by David J. Kwiatkowski (Harvard Medical School, Boston, MA, USA). MEF cells were cultured in Dulbecco’s modified Eagles’s medium (DMEM) (Corning, New York, USA), supplemented with 100 μg/ml streptomycin (HyClone), 100 U/ml penicillin (HyClone), 10% fetal bovine serum (Biological Industries, Cromwell, USA) and incubated at 37°C in 5% CO2.
as §2

[7] = test system: phospho-S6 ribosomal protein (Ser235/236) in Tsc2-null MEFs; assay: S6 phosphorylation (pS6) by Western blot in Tsc2-null MEFs; assay type: cell-based, mouse; conditions: 0.5-6 µM, 24 h
Procedure: as §4
Proteins were extracted in cold lysis buffer (50 mM Tris-HCl pH 7.4; 10% glycerol; 200 mM NaCl2; 2.5 mM MgCl2; 1% Triton X-100; 1/100 protease inhibitors; 1/100 phosphatase inhibitors) and the protein concentration was determined by Bradford assay. […] Immunolabeled proteins were detected using ECL Western Blotting Detection Reagent (GE Healthcare, Chicago, USA) and visualized in Syngene PXi6 Documentation System (Frederick, MD, USA).
For GFP proteins, Tsc2-wt MEF cells were electroporated with 3 µg of pEGFP-C1-RhebWT (GFP-Rheb) or pEGFP-C1 (GFP only) using NEON™ Transfection System (Invitrogen). […] Images were analyzed by confocal fluorescence microscopy using the LSM780 NLO Confocal Spectral Microscope (Carl Zeiss, Jena, Germany).

Smad/Smurf = assay: yeast two-hybrid LacZ quantitative measurement, Smad/Smurf control interaction; conditions: 7 and 24 h, titrated concentrations
Procedure: As a control, a yeast two-hybrid was performed using Smad (bait), Smurf (prey), and the empty vectors. To verify positive clones, diploid cells were grown on selective media either lacking tryptophan and leucine (DO-2) or lacking tryptophan, leucine, and histidine (DO-3). To detect lacZ gene expression, diploid cells co-transformed with bait and prey constructs were grown on DO-2 medium supplemented with X-gal substrate. […] To detect lacZ gene expression, diploid cells co-transformed with bait and prey constructs were grown on DO-2 medium supplemented with X-gal substrate. Co-transformed cells able to grow on DO-2 medium and form blue colonies in the presence of X-gal were considered positive bait-prey interaction.

Tsc2-null MEFs [8] = assay: XTT viability assay in Tsc2-null MEFs; assay type: cell-based, mouse; conditions: after 24 h, Deltasonamide 1 6 µM, rapamycin 20 nM
Procedure: as §1

[9] = test system: EGF-induced S6 phosphorylation in pancreatic cancer cell lines; set-up: method as in Papke et al., 2016; conditions: another pancreatic cancer cell line; ref Papke et al., 2016; cited from earlier work

| SMILES | effect on cell viability (XTT) (Tsc2-wt MEFs; 72 h, Deltasonamide 1 6 µM) | effect on mTORC1 activity/signaling [1] | effect on dead cells (Tsc2-null MEFs [2]; 24 h) | effect on cell numbers (Tsc2-null MEFs [2]; 24 h) | effect on percentage of dead cells (Tsc2-null MEFs [2]; 48 h) | effect on intracellular Rheb distribution [3] | LogIC50 of pS6K levels (Figure 3) ([4]; 0.5–8 µM) | effect on BrdU incorporation (Tsc2-null MEFs [5]) | Caco-2 (pH 6.5/7.4) Papp (A→B) (Caco-2 cells; 10 µM, 2 h, 37°C) | Caco-2 (pH 6.5/7.4) Papp (B→A) (Caco-2 cells; 10 µM, 2 h, 37°C) | effect on 4EBP1 phosphorylation (p4EBP1 levels, top band) [6] | change in electrophoretic pattern of total and phosphorylated 4EBP1 [6] | effect on S6 phosphorylation (pS6) [7] | effect on the interaction between Smad and Smurf (Smad/Smurf) | effect on cell viability (XTT) (Tsc2-null MEFs [8]) | effect on S6K phosphorylation ([4]; 6 µM) | effect on EGF-induced S6 phosphorylation [9] | Caco-2 (pH 6.5/7.4) Papp (A→B) (Caco-2 cells; Caco-2, pH 6.5) | Caco-2 (pH 6.5/7.4) Papp (B→A) (Caco-2 cells; Caco-2, pH 6.5) | effect on cell viability (XTT) (Tsc2-wt MEFs; 48 h, rapamycin 20 nM) |
| --- | --- | --- | --- | --- | --- | --- | --- | --- | --- | --- | --- | --- | --- | --- | --- | --- | --- | --- | --- | --- |
| CNc1nccc(CN(CC2CCNCC2)S(=O)(=O)c2ccc(S(=O)(=O)N(Cc3ccc(Cl)cc3)C3CCCC3)cc2)n1 [Deltasonamide 1] | reduced | did not affect | not associated with an increase in dead cells | significantly decreased | significantly increased | disrupted | -5.347 | significantly reduced | 1.6 10^−6 cm/s and 1.56 10^−6 cm/s | 13.67 10^−6 cm/s | could not detect a significant effect | caused the appearance of lower molecular weight bands | dose-dependently reduced | not affected | significantly diminished | – | – | – | – | – |
| Cc1ccc(-n2nc3c(=O)n(CCCC(=O)NCC(C)c4ccccc4)nc(C)c3c2C)cc1 (stereo not shown) [Deltazinone 1] | – | – | – | – | – | – | – | – | – | – | ineffective | – | did not affect | not affected | – | ineffective | ineffective | 41.1 10^−6 cm/s | 25.1 10^−6 cm/s | – |
| CO[C@H]1C[C@@H]2CC[C@@H](C)[C@@](O)(O2)C(=O)C(=O)N2CCCC[C@H]2C(=O)O[C@H]([C@H](C)C[C@@H]2CC[C@@H](O)[C@H](OC)C2)CC(=O)[C@H](C)/C=C(\C)[C@@H](O)[C@@H](OC)C(=O)[C@H](C)C[C@H](C)/C=C/C=C/C=C/1C [rapamycin] | – | significantly affected | – | significantly decreased | – | – | – | significantly reduced | – | – | – | caused the appearance of lower molecular weight bands | – | – | significantly diminished | – | – | – | – | significantly affected |
